Patent US20090258883A1, “1H-Indole-Pyridinecarboxamide and 1H-Indole-Piperidinecarboxamide Compounds” (LES LABORATOIRES SERVIER, priority 2005, published 2009)
Marks after values point to notes of the source that are not given here.

Tests used:
[1] = test system: tyrosine hydroxylase (TH) protein; assay: Induction of tyrosine hydroxylase (TH) in LC, SN and VTA of the mouse brain; format: in vivo, Balb/C mouse; details: three days after single injection, relative to mean value of control group
Source text: A search is made among the compounds for those which are capable of bringing about an increase in the tyrosine hydroxylase (TH) protein in the locus coeruleus (LC), substantia nigra (SN) and ventral tegmental area (VTA) of the brain of the Balb/C mouse. The animals used are consanguinal male mice of the pure Balb/C strain (Charles River Laboratories) aged 6 weeks at the time of treatment.
The mice are given a single injection, by the intraperitoneal route, of the compound under test, dissolved in 0.04M HCl solution (corresponding control: 0.04M HCl), if the compound is sufficiently soluble, or in olive oil 90%/DMSO 10% (corresponding control: olive oil 90%/DMSO 10%) for compounds that are insoluble in an aqueous medium. The volume injected is 100 μl. The test groups comprise 10 animals.
Three days after the injection of each compound, all the animals are sacrificed by decapitation. The brains are removed and then frozen in an isopentane solution at −30° C. for 45 seconds and subsequently stored at −80° C.
Serial coronal sections 20 microns thick are then taken using a cryomicrotome. Each structure of interest is then sampled along the posterior-anterior axis of the brain by taking sections at 80-micron spacings in the case of the LC and at 80- or 160-micron spacings in the case of the VTA and SN. The limits of those structures are those described in the atlas of Franklin and Paxinos. The total proteins of each of those sections are transferred by direct collection of the sections to a nitrocellulose filter (Millipore). The amounts of TH present in each sample are measured by immunochemistry, fluorimetric detection and image analysis.

muscarinic (M) receptors = assay: Affinity for receptors, displacement of labelled specific ligand: muscarinic; format: binding
Description: (§1) The affinity for receptors is determined according to customary methods of relations between the specific ligand and the receptor, which may be of animal origin or a human recombinant. The affinity was determined by the method of displacement of the labelled specific ligand by the compound under test and expressed by the dissociation constant KI. The receptor affinity was accordingly studied for 28 conventional receptors.

[2] = test system: sigma (σ) receptors (ligand: haloperidol); assay: Affinity for receptors, displacement of labelled specific ligand: sigma; format: binding; details: concentration 10^−5 M
Description: as §1

[3] = Predicted metabolic stability, mouse hepatic microsomes; format: in vitro ADME; details: 10^−7 M, mouse hepatic microsomes 0.33 mg of prot/ml, NADPH
Description: (§2) The predicted metabolic stability is tested by incubation of the compounds at a concentration of 10^−7M in the presence of mouse, rat or human hepatic microsomes (0.33 mg of prot/ml). After addition of NADPH (nicotinamide adenine dinucleotide phosphate, reduced form), samples are taken at 0, 5, 15, 30 and 60 minutes. The enzymatic reaction is stopped using methanol (V/V). The protein is precipitated by centrifugation and the supernatant is analysed by LC-MS-MS.

[4] = Predicted metabolic stability, rat hepatic microsomes; format: in vitro ADME; details: 10^−7 M, rat hepatic microsomes 0.33 mg of prot/ml, NADPH
Description: as §2

[5] = Predicted metabolic stability, human hepatic microsomes; format: in vitro ADME; details: 10^−7 M, human hepatic microsomes 0.33 mg of prot/ml, NADPH
Description: as §2

[6] = biological target: 5HT receptors (type 5HT2A) (Homo sapiens, UniProt P28223); assay: Affinity for receptors, displacement of labelled specific ligand: 5HT2A; format: binding
[7] = biological target: dopaminergic receptors (type D1) (Homo sapiens, UniProt P21728); assay: Affinity for receptors, displacement of labelled specific ligand: D1; format: binding
[8] = biological target: dopaminergic receptors (type D2) (Homo sapiens, UniProt P14416); assay: Affinity for receptors, displacement of labelled specific ligand: D2; format: binding
Sequence of dopaminergic receptors (type D2) (P14416 whole entry): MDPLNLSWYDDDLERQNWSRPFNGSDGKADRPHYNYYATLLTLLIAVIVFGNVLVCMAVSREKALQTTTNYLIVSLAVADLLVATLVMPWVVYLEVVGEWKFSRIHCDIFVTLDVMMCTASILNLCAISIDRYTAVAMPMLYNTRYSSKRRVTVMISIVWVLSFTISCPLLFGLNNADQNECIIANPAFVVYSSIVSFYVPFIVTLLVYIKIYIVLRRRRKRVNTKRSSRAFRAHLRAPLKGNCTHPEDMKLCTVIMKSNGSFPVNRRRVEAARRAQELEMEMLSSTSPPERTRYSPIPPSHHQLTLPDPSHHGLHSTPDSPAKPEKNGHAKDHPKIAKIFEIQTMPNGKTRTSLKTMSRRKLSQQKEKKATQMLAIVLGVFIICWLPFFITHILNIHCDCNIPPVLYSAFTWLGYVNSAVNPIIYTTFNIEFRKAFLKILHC

Sequence of dopaminergic receptors (type D1) (P21728 whole entry): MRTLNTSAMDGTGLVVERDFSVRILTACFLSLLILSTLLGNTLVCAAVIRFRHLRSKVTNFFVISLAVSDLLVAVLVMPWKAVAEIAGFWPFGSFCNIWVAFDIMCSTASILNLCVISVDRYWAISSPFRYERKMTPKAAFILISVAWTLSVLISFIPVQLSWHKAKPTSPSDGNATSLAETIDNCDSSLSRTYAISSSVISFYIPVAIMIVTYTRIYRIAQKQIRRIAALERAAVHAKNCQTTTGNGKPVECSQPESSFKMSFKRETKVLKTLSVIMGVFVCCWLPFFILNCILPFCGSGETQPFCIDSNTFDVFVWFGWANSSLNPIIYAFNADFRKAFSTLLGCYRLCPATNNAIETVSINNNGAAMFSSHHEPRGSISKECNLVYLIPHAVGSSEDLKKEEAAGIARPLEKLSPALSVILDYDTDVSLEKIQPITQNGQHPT
Sequence of 5HT receptors (type 5HT2A) (P28223 whole entry): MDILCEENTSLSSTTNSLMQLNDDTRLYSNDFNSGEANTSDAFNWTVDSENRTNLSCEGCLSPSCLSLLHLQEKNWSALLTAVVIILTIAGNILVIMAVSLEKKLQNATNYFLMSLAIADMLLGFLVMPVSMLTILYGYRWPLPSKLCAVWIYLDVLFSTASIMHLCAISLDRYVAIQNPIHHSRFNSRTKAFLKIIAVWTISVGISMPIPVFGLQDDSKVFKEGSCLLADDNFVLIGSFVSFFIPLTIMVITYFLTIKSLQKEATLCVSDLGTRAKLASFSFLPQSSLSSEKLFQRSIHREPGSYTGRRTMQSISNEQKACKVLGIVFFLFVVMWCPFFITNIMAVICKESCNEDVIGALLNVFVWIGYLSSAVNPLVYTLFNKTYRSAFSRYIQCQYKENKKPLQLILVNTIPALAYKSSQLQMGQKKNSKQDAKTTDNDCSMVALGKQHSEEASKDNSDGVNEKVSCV

CN1CCN(CCN2CCC=C(C(=O)Nn3ccc4cc(Cl)ccc43)C2)CC1 [Example 47, N-(5-Chloroindol-1-yl)-1-[2-(4-methylpiperazin-1-yl)ethyl]-1,2,5,6-tetrahydropyridine-3-carboxamide]
amount of TH in LC section 1 ([1]; LC section 1 (posterior-to-anterior), i.p. 20 mg/kg): 232** %
amount of TH in LC section 2 ([1]; LC section 2, i.p. 20 mg/kg): 138* %
amount of TH in LC section 3 ([1]; LC section 3, i.p. 20 mg/kg): 176** %
amount of TH in LC section 4 ([1]; LC section 4, i.p. 20 mg/kg): 179** %
amount of TH in LC section 5 ([1]; LC section 5, i.p. 20 mg/kg): 172** %
amount of TH in LC section 6 ([1]; LC section 6, i.p. 20 mg/kg): 169** %
amount of TH in LC section 7 ([1]; LC section 7, i.p. 20 mg/kg): 153** %
amount of TH in LC section 8 ([1]; LC section 8, i.p. 20 mg/kg): 140** %
amount of TH in LC section 9 ([1]; LC section 9, i.p. 20 mg/kg): 84* %
amount of TH in LC section 10 ([1]; LC section 10, i.p. 20 mg/kg): 88%
amount of TH in LC section 11 ([1]; LC section 11, i.p. 20 mg/kg): 127%
amount of TH, LC, total ([1]; LC total, i.p. 20 mg/kg): 147** %
% inhibition M (muscarinic (M) receptors; concentration 10^−5 M): 10%
% inhibition M (muscarinic (M) receptors; concentration 10^−7 M): 19%
% inhibition σ [2]: 67%
% metabolic stability predicted using hepatic microsomes, Mouse [3]: 53%
% metabolic stability predicted using hepatic microsomes, Rat [4]: 87%
% metabolic stability predicted using hepatic microsomes, Human [5]: 78%
inhibition at 10 µM ([6]; concentration 10^−5 M): 15%
inhibition at 0.1 µM ([6]; concentration 10^−7 M): 10%
inhibition at 10 µM ([7]; concentration 10^−5 M): < 10%
inhibition at 0.1 µM ([7]; concentration 10^−7 M): < 10%
inhibition at 10 µM ([8]; concentration 10^−5 M): < 10%
inhibition at 0.1 µM ([8]; concentration 10^−7 M): < 10%
